# Measured values reported in patent publication US8389521B2, “Inhibitors of protein kinases” (Ingenium Pharmaceuticals GmbH, priority 2007, dated 2013).
# Columns and labels:
# [1] = test system: Tau phosphorylation at Serin396 in differentiated SH-SY5Y cells; assay: In vitro SH-SY5Y assay using tau phosphorylation; type: cell-based, human; conditions: RA- and BDNF-differentiated SH-SY5Y cells, 90-120 min incubation, Western Blot or ELISA
# Protocol: The human neuroblastoma cell line SH-SY5Y can be utilized as an in vitro model to investigate CDK5 function and the efficacy of CDK5 specific inhibitors. SH-SY5Y cells express tau protein which harbors various phosphorylation sites known to be phosphorylated by several kinases including CDK5. SH-SY5Y cells can be differentiated into neuron-like cells by exposure to 10 μM all trans-retinoic acid for 3 days and subsequent exposure to 50 ng/ml human recombinant brain-derived neurotrophic factor for 3-5 days, thereby upregulating neuronal markers, including tau protein. In addition CDK5 and p35 protein levels were increased during differentiation. RA-BDNF-differentiated cells can therefore serve as a suitable model for studying tau phosphorylation and to screen potential CDK5 inhibitors (Jämsä et al., 2004. BBRC 319; 993-1000). […]
# Concentrations of total tau, pS396 tau and pT231 tau within the cell culture lysates are measured by using commercial ELISA Kits (BioSource: human total tau: KHB0042; human pS396 tau: KHB7031; human pT231 tau: KHB7051) according to the manufacturers instructions or by using Western Blots probing with total and phospho-specific antibodies (antibodies: total tau: Santa Cruz, sc-21796; pS396 tau: Santa Cruz, sc-12414; pT231 tau, AT180: Pierce Endogen, MN1040; pS202 tau: AT8: Pierce Endogen, MN1020). […]
SMILES,melting point [°C],inhibitory effect on Tau phosphorylation at Serin396 [1]
"CCOc1ccccc1-c1cc(Nc2ccc(CS(N)(=O)=O)cc2)ncn1 [Compound 6, {4-[6-(2-Ethoxy-phenyl)-pyrimidin-4-ylamino]-phenyl}-methanesulfonamide]",213.5 to 215.1,–
"COCCCNS(=O)(=O)Cc1cccc(Nc2cc(-c3ccccc3OC)ncn2)c1 [Reference Compound 3, C-{3-[6-(2-methoxy-phenyl)-pyrimidin-4-ylamino]-phenyl}-N-(3-methoxy-propyl)-methanesulfonamide]",149.2 to 150.8,–
"NS(=O)(=O)Cc1ccc(Nc2cc(-c3ccccc3OCc3ccccc3)ncn2)cc1 [Compound 8, {4-[6-(2-Benzyloxy-phenyl)-pyrimidin-4-ylamino]-phenyl}-methanesulfonamide]",–,significant inhibitory effect
